# Earlier results, collected in patent publication US10828311B2, “Controlled release compositions and their methods of use” (BAYER NEW ZEALAND LTD, priority 2012, dated 2020).
# System: microbes
# Conditions: for Cloxacillin in New Zealand
compound,measurement,value
"Cc1onc(-c2ccccc2Cl)c1C(=O)N[C@@H]1C(=O)N2[C@@H]1SC(C)(C)[C@@H]2C(=O)O [Cloxacillin, cloxacillin]",MIC90,0.5 µg/mL
